Assay results reported in patent US11939311B2, “Acid-labile surfactants” (Promega Corporation, priority 2019, dated 2024).

What was measured:
[1] = Thermal stability, LCMS (% remaining at 95° C. for 1 h); details: 20 mM DMSO stock diluted 100-times into Tris-based PCR buffer
Protocol: To test for thermal stability (% remaining at 95° C. for 1 h), 20 mM stock solutions of example compounds in DMSO were prepared. The stock solutions were diluted 100-times into a Tris-based PCR buffer and heated to 95° C. for 1 hour in a thermocycler. The solutions were then analyzed by LCMS.
(§1) Compound purity and percent remaining were determined by integrating peaks in the total ion chromatogram using LCMS. Compound peaks were identified in negative mode using the molecular weight without sodium. The mobile phase of acetonitrile and water contained 10 mM ammonium acetate using a Synergi Max-RP column, 50×4.6 mm, 2.5 microns.

[2] = Acid stability in 2% TFA, LCMS; details: 3 mM stock diluted 6-times to 2% TFA-NanoPure water
Protocol: To test for acid stability, a 3% stock solution (9 mg/300 μL) of each example compound was prepared in NanoPure water. A secondary 3 mM stock solution was prepared in NanoPure water. The secondary stock was diluted 6-times in NanoPure water as a control or diluted 6-times into 2.4% TFA-NanoPure water to 2% TFA-NanoPure water for the acid stability experiment. The solutions were heated to 40° C. for 1 hour and analyzed by LCMS.
as §1

Trypsin Gold (Promega) = molecular target: T1, Trypsin Gold (Promega) (Sus scrofa, UniProt P00761); experiment: Trypsin compatibility with the trypsin-specific substrate BAEE; format: biochemical; details: 0.1% surfactant, 200 μM BAEE; for Slope: 0.2 μg Trypsin Gold, absorbance at 253 nm every minute over 10 minutes; for % Trypsin Activity: compared to control of trypsin without surfactant
T1 construct: purchased Promega
T1 sequence (P00761 9-231): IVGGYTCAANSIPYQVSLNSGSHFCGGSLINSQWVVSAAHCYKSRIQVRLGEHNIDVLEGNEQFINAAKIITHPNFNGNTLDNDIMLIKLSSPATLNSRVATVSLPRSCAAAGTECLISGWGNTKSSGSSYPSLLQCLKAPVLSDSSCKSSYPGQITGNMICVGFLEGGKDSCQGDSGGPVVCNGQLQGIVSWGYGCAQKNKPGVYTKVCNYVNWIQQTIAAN
Protocol: Compatibility of the different compounds with trypsin was tested using a trypsin-specific substrate, benzoyl-L-arginine ethyl ester hydrochloride (BAEE). 4% stock solutions (12 mg/300 μL) of example compounds were prepared in NanoPure water. The stock solution was diluted 40 times in 50 mM ammonium bicarbonate, pH 7.8 (0.1% final) with 200 μM of BAEE. The entire sample was transferred to an individual well in a 96-well UV-compatible microplate. The absorbance of the sample was measured at 253 nm using a TECAN M1000 plate reader. After 2 minutes, 0.2 μg of Trypsin Gold (Promega) was added to the reaction and absorbance at 253 nm was monitored every minute over a period of 10 minutes. The resulting activity measurement was compared to the control of trypsin without surfactant present. Trypsin is the most commonly used protease for the digestion of protein mass spectrometry samples. The results from this experiment indicate that the compounds have a minimal effect on trypsin activity and can be used during the sample digestion step.

SMILES | % remaining after 1 hour at 95° C. in Polymerase Buffer C [1] | % remaining after 1 h at 40° C. in 2% TFA [2] | Slope (Trypsin Gold (Promega)) | % Trypsin Activity (Trypsin Gold (Promega))
CCCCCCCCCCC1(C)OCC(COC(=O)NCCCS(=O)(=O)[O-])O1.[Na+] (stereo not shown) [AF-0045, Sodium 3-((((2-decyl-2-methyl-1,3-dioxolan-4-yl)methoxy)carbonyl)amino)propane-1-sulfonate] | 89.3% | 0% | – | –
CCCCCCCCCCCC1OCC(COC(=O)Nc2ccc(N(CCCS(=O)(=O)[O-])CCCS(=O)(=O)[O-])cc2)O1.[Na+].[Na+] (stereo not shown) [CS-0843, Sodium 3,3′-((4-((((2-undecyl-1,3-dioxolan-4-yl)methoxy)carbonyl)amino)phenyl)-azanediyl)bis(propane-1-sulfonate)] | >99% | 22% | – | –
CCCCCOC(C)(COC(=O)Nc1ccc(N(CCCS(=O)(=O)[O-])CCCS(=O)(=O)[O-])cc1)OCCCCC.[Na+].[Na+] [CS-0853, Sodium 3,3′-((4-(((2,2-bis(pentyloxy)propoxy)carbonyl)amino)phenyl)azanediyl) bis(propane-1-sulfonate)] | 2.5% | 42% | – | –
CCCCCCCCCCCC1(C)OCC(COC(=O)NCC(O)CS(=O)(=O)[O-])O1.[Na+] (stereo not shown) [HW-0797, Sodium 2-hydroxy-3-((((2-methyl-2-undecyl-1,3-dioxolan-4-yl)methoxy)carbonyl)amino)propane-1-sulfonic Acid] | 83.6% | Not soluble | – | –
CCCCCCCCCCC1OCC(COC(=O)NCC(O)CS(=O)(=O)[O-])O1.[Na+] (stereo not shown) [HW-0801, Sodium 3-((((2-decyl-1,3-dioxolan-4-yl)methoxy)carbonyl)amino)-2-hydroxypropane-1-sulfonic Acid] | 94.1% | Not soluble | – | –
CCCCCCCCCCCC1OCC(COC(=O)NCC(O)CS(=O)(=O)[O-])O1.[Na+] (stereo not shown) [HW-0805, Sodium 2-hydroxy-3-((((2-undecyl-1,3-dioxolan-4-yl)methoxy)carbonyl)amino)propane-1-sulfonate] | 94.2% | Not soluble | – | –
CCCCCCCCCCCCC1OCC(COC(=O)NCC(O)CS(=O)(=O)[O-])O1.[Na+] (stereo not shown) [HW-0807, Sodium 3-((((2-dodecyl-1,3-dioxolan-4-yl)methoxy)carbonyl)amino)-2-hydroxypropane-1-sulfonic Acid] | Not soluble | Not soluble | – | –
CCCCCCCCCCC1OCC(COC(=O)NCCCS(=O)(=O)[O-])O1.[Na+] (stereo not shown) [JRW-1564, Sodium 3-((((2-decyl-1,3-dioxolan-4-yl)methoxy)carbonyl)amino)propane-1-sulfonate] | 95.2% | 1% | – | –
CCCCCCCCCCCC1OCC(COC(=O)NCCCS(=O)(=O)[O-])O1.[Na+] (stereo not shown) [JRW-1565, Sodium 3-((((2-undecyl-1,3-dioxolan-4-yl)methoxy)carbonyl)amino)propane-1-sulfonate] | 95.7% | 1% | – | –
CCCCCCCCCCCC1(C)OCC(COC(=O)NCCCS(=O)(=O)[O-])O1.[Na+] (stereo not shown) [JRW-1573, Sodium 3-((((2-methyl-2-undecyl-1,3-dioxolan-4-yl)methoxy)carbonyl)amino)propane-1-sulfonate] | 95.0% | 0% | 0.0133 | 92%
CCCCCCCCCCCCC1OCC(COC(=O)NCCCS(=O)(=O)[O-])O1.[Na+] (stereo not shown) [JRW-1574, Sodium 3-((((2-dodecyl-1,3-dioxolan-4-yl)methoxy)carbonyl)amino)propane-1-sulfonate] | 92.8% | 4% | – | –
CCCCCC1(CCCCC)OCC(COC(=O)NCC(O)CS(=O)(=O)[O-])O1.[Na+] (stereo not shown) [JZ-0164, Sodium 3-((((2,2-dipentyl-1,3-dioxolan-4-yl)methoxy)carbonyl)amino)-2-hydroxypropane-1-sulfonate] | 93.8% | 0% | – | –
CCCCCC1(CCCCC)OCC(COC(=O)NCCCS(=O)(=O)[O-])O1.[Na+] (stereo not shown) [JZ-0177, Sodium 3-((((2,2-dipentyl-1,3-dioxolan-4-yl)methoxy)carbonyl)amino)propane-1-sulfonate] | 99.4% | 0% | – | –
CCCCCCC1(CCCCCC)OCC(COC(=O)NCC(O)CS(=O)(=O)[O-])O1.[Na+] (stereo not shown) [JZ-0179, Sodium 3-((((2,2-dihexyl-1,3-dioxolan-4-yl)methoxy)carbonyl)amino)-2-hydroxypropane-1-sulfonate] | 83.9% | 100% | – | –
CCCCCOC(C)(COC(=O)NCCCS(=O)(=O)[O-])OCCCCC.[Na+] [RBK-0168] | 5.4% | – | – | –
CCCCCCOC(C)(COC(=O)NCCCS(=O)(=O)[O-])OCCCCCC.[Na+] [RBK-0169] | 6.0% | – | – | –
CCCCCCCC1(CCCCCCC)OCC(COC(=O)NCCCS(=O)(=O)[O-])O1.[Na+] (stereo not shown) [RBK-0170] | 88.3% | 0% | 0.0107 | 74%
CCCCCOC(C)(COC(=O)NCC(O)CS(=O)(=O)[O-])OCCCCC.[Na+] (stereo not shown) [RBK-0171] | 13.1% | – | – | –
CCCCCCOC(C)(COC(=O)NCC(O)CS(=O)(=O)[O-])OCCCCCC.[Na+] (stereo not shown) [RBK-0172] | 8.2% | – | – | –
CCCCCCCC1(CCCCCCC)OCC(COC(=O)NCC(O)CS(=O)(=O)[O-])O1.[Na+] (stereo not shown) [RBK-0173] | 81.2% | Not soluble | – | –
CCCCCCCCCCCC1(C)OCC(COC(=O)Nc2ccc(N(CCCS(=O)(=O)[O-])CCCS(=O)(=O)[O-])cc2)O1.[Na+].[Na+] (stereo not shown) [SL-1735, Sodium 3,3′-((4-((((2-methyl-2-undecyl-1,3-dioxolan-4-yl)methoxy)carbonyl)amino)phenyl)azanediyl)bis(propane-1-sulfonate)] | 93.6% | 0% | – | –
CCCCCCC1(CCCCCC)OCC(COC(=O)NCCCS(=O)(=O)[O-])O1.[Na+] (stereo not shown) [TU-1179, Sodium 3-((((2,2-dihexyl-1,3-dioxolan-4-yl)methoxy)carbonyl)amino)propane-1-sulfonate] | 102.9% | 0% | – | –
CC(COC(=O)NCCCS(=O)(=O)[O-])(OCCC(F)(F)C(F)(F)C(F)(F)C(F)(F)F)OCCC(F)(F)C(F)(F)C(F)(F)C(F)(F)F.[Na+] [ZZ-0842, Sodium 3-(((2,2-bis((3,3,4,4,5,5,6,6,6-nonafluorohexyl)oxy)propoxy)carbonyl)amino)propane-1-sulfonate] | >99% | 0% | – | –
CC(COC(=O)NCC(O)CS(=O)(=O)[O-])(OCCC(F)(F)C(F)(F)C(F)(F)C(F)(F)C(F)(F)C(F)(F)F)OCCC(F)(F)C(F)(F)C(F)(F)C(F)(F)C(F)(F)C(F)(F)F.[Na+] (stereo not shown) [ZZ-0846, Sodium 3-(((2,2-bis((3,3,4,4,5,5,6,6,7,7,8,8,8-tridecafluorooctyl)oxy)propoxy)carbonyl)amino)-2-hydroxypropane-1-sulfonate] | 93.4% | 2% | – | –
CC(COC(=O)NCCCS(=O)(=O)[O-])(OCCC(F)(F)C(F)(F)C(F)(F)C(F)(F)C(F)(F)C(F)(F)F)OCCC(F)(F)C(F)(F)C(F)(F)C(F)(F)C(F)(F)C(F)(F)F.[Na+] [ZZ-0849, Sodium 3-(((2,2-bis((3,3,4,4,5,5,6,6,7,7,8,8,8-tridecafluorooctyl)oxy)propoxy)carbonyl)amino)propane-1-sulfonate] | >99% | 2% | – | –
CC(COC(=O)NCC(O)CS(=O)(=O)[O-])(OCCC(F)(F)C(F)(F)C(F)(F)C(F)(F)F)OCCC(F)(F)C(F)(F)C(F)(F)C(F)(F)F.[Na+] (stereo not shown) [ZZ-0850, Sodium 3-(((2,2-bis((3,3,4,4,5,5,6,6,6-nonafluorohexyl)oxy)propoxy)carbonyl)amino)-2-hydroxypropane-1-sulfonate] | 90.5% | 0% | – | –
